Assay results from patent US7642270B2, “5-oxo-5,8-dihydro-pyrido-pyrimidine as inhibitors of c-fms kinase” (Janssen Pharmaceutica N.V., priority 2005, dated 2010).
Read-outs that look alike come from different tables or passages of the source.

Biological target: c-fms (Homo sapiens, UniProt P07333)
Assay: c-fms autophosphorylation, fluorescence polarization competition immunoassay
Format: biochemical
Method: Autophosphorylation, Fluorescence Polarization Competition Immunoassay
The assay buffer used was 100 mM 4-(2-hydroxyethyl)piperazine 1-ethanesulfonic acid (HEPES), pH 7.5, 1 mM 1,4-dithio-DL-threitol (DTT), 0.01% (v/v) Tween-20. Compounds were diluted in assay buffer containing 4% dimethylsulfoxide (DMSO) just prior to the assay. […] The kinase reaction was initiated by adding 2 μL of 5 mM ATP (Sigma) in assay buffer. The final concentrations in the assay were 10 nM c-fms, 1 mM ATP, 5 mM MgCl2, 2% DMSO. Control reactions were ran in each plate: in positive and negative control wells, assay buffer (made 4% in DMSO) was substituted for the compound; in addition, positive control wells received 1.2 μL of 50 mM ethylenediaminetetraaceticacid (EDTA).
The plates were incubated at room temperature for 45 min. At the end of the incubation, the reaction was quenched with 1.2 μL of 50 mM EDTA (EDTA was not added to the positive control wells at this point; see above). Following a 5-min incubation, each well received 10 μL of a 1:1:3 mixture of anti-phosphotyrosine antibody, 10×, PTK green tracer, 10× (vortexed), FP dilution buffer, respectively (all from PanVera, cat. # P2837). The plate was covered, incubated for 30 min at room temperature and the fluorescence polarization was read on the Analyst.
The IC50 values shown in Table 1 are averages of three independent measurements.

[1] = 10 nM c-fms, 1 mM ATP, 5 mM MgCl2, 45 min room temperature, averages of three independent measurements, read-out: c-fms Autophosphorylation IC50

Sequence of c-fms (P07333 20-972): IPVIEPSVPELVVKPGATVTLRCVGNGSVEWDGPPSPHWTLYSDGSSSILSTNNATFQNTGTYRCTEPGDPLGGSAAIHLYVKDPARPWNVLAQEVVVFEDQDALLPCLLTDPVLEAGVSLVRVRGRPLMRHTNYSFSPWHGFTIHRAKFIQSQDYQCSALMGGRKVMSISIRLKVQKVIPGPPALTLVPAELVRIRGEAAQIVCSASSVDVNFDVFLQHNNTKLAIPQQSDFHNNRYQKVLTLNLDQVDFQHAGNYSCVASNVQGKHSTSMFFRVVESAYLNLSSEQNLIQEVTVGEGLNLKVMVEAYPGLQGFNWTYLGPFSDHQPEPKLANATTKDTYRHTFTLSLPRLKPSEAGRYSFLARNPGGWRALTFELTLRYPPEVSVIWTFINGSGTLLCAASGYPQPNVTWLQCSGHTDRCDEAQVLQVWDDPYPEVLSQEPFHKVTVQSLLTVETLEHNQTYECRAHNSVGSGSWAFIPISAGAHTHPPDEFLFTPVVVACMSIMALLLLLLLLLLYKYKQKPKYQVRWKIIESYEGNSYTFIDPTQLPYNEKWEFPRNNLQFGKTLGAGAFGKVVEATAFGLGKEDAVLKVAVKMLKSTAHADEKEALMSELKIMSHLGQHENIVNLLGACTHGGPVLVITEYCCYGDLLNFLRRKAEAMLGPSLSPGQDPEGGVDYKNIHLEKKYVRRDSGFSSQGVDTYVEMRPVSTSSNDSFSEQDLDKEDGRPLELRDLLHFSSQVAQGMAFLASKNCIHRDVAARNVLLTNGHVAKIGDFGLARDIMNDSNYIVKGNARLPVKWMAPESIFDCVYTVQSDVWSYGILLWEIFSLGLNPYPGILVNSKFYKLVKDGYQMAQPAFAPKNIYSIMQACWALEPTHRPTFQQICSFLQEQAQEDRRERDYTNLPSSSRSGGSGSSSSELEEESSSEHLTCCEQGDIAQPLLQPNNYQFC

Row | SMILES | IC50 [1] | IC50
1 | CN1CCN(c2ccc(Nc3ncc4c(=O)c(C(N)=O)cn(-c5ccc6c(c5)CCC6)c4n3)c(O)c2)CC1 [Cpd 25, 2-[2-Hydroxy-4-(4-methyl-piperazin-1-yl)-phenylamino]-8-indan-5-yl-5-oxo-5,8-dihydro-pyrido[2,3-d]pyrimidine-6-carboxylic acid amide] | 93 nM | –
2 | CCNC(=O)c1cn(C2CCCCC2)c2nc(Nc3cccc(N4CCN(C)CC4)c3)ncc2c1=O [Cpd 65, 8-Cyclohexyl-2-[3-(4-methyl-piperazin-1-yl)-phenylamino]-5-oxo-5,8-dihydro-pyrido[2,3-d]pyrimidine-6-carboxylic acid ethyl amide] | 110 nM | –
3 | CNC(=O)c1cn(Cc2ccccc2)c2nc(Nc3ccc(N4CCN(C)CC4)cc3)ncc2c1=O [Cpd 85, 8-Benzyl-2-[4-(4-methyl-piperazin-1-yl)-phenylamino]-5-oxo-5,8-dihydro-pyrido[2,3-d]pyrimidine-6-carboxylic acid methylamide] | 420 nM | –
4 | NC(=O)c1cn(-c2ccc3c(c2)CCC3)c2nc(Nc3ccc(CN4CCOCC4)cc3)ncc2c1=O [Cpd 69, 8-Indan-5-yl-2-(4-morpholin-4-ylmethyl-phenylamino)-5-oxo-5,8-dihydro-pyrido[2,3-d]pyrimidine-6-carboxylic acid amide] | – | 18 nM
5 | CCNC(=O)c1cn(-c2ccc3c(c2)CCC3)c2nc(Nc3ccc(CCS(=O)(=O)NC(C)C)cc3)ncc2c1=O [Cpd 34, 8-Indan-5-yl-2-[4-(2-isopropylsulfamoyl-ethyl)-phenylamino]-5-oxo-5,8-dihydro-pyrido[2,3-d]pyrimidine-6-carboxylic acid ethyl amide] | > 1000 nM | –
6 | CCNC(=O)c1cn(C2CCCCC2)c2nc(Nc3ccc(CCN4CCOCC4)cc3)ncc2c1=O [Cpd 59, 8-Cyclohexyl-2-[4-(2-morpholin-4-yl-ethyl)-phenylamino]-5-oxo-5,8-dihydro-pyrido[2,3-d]pyrimidine-6-carboxylic acid ethyl amide] | 190 nM | –
7 | CCOC(=O)c1cn(-c2ccc3c(c2)CCC3)c2nc(Nc3ccc(N4CCN(C)CC4)cc3)ncc2c1=O [Cpd 1, 8-Indan-5-yl-2-[4-(4-methyl-piperazin-1-yl)-phenylamino]-5-oxo-5,8-dihydro-pyrido[2,3-d]pyrimidine-6-carboxylic acid ethyl ester] | 280 nM | –
8 | CCOC(=O)c1cn(-c2ccc3c(c2)CCC3)c2nc(Nc3cccc(N(C)C)c3)ncc2c1=O [Cpd 5, 2-(3-Dimethylamino-phenylamino)-8-indan-5-yl-5-oxo-5,8-dihydro-pyrido[2,3-d]pyrimidine-6-carboxylic acid ethyl ester] | 590 nM | –
9 | CCNC(=O)c1cn(-c2ccc3c(c2)CCC3)c2nc(Nc3cccc(CN(C)C)c3)ncc2c1=O [Cpd 78, 2-(3-Dimethylaminomethyl-phenylamino)-8-indan-5-yl-5-oxo-5,8-dihydro-pyrido[2,3-d]pyrimidine-6-carboxylic acid ethylamide] | 140 nM | –
10 | CCNC(=O)c1cn(-c2ccc3c(c2)CCC3)c2nc(Nc3ccc(OCC(O)CN(C)C)cc3)ncc2c1=O (stereo not shown) [Cpd 12, 2-[4-(3-Dimethylamino-2-hydroxy-propoxy)-phenylamino]-8-indan-5-yl-5-oxo-5,8-dihydro-pyrido[2,3-d]pyrimidine-6-carboxylic acid ethylamide] | 77 nM | –
11 | CCNC(=O)c1cn(-c2ccc3c(c2)CCC3)c2nc(Nc3cccc(N4CCN(C)CC4)c3)ncc2c1=O [Cpd 39, 8-Indan-5-yl-2-[3-(4-methyl-piperazin-1-yl)-phenylamino]-5-oxo-5,8-dihydro-pyrido[2,3-d]pyrimidine-6-carboxylic acid ethyl amide] | 13 nM | –
12 | CN1CCN(c2ccc(Nc3cc4c(cn3)c(=O)c(C(N)=O)cn4-c3ccc4c(c3)CCC4)cc2)CC1 [Cpd 26, 1-Indan-5-yl-7-[4-(4-methyl-piperazin-1-yl)-phenylamino]-4-oxo-1,4-dihydro-[1,6]naphthyridine-3-carboxylic acid amide] | 56 nM | –

Now from value to molecule:

Row | IC50 [1] | IC50 | SMILES
13 | 33 nM | – | CCNC(=O)c1cn(-c2ccc3c(c2)CCC3)c2nc(Nc3ccc(C[C@H]4COC(=O)N4)cc3)ncc2c1=O [Cpd 32, (4S)-8-Indan-5-yl-5-oxo-2-[4-(2-oxo-oxazolidin-4-ylmethyl)-phenylamino]-5,8-dihydro-pyrido[2,3-d]pyrimidine-6-carboxylic acid ethyl amide]
14 | 20 nM | – | CNC(=O)c1cn(-c2ccc3c(c2)CCC3)c2nc(Nc3ccc(C[C@H]4COC(=O)N4)cc3)ncc2c1=O [Cpd 31, (4S)-8-Indan-5-yl-5-oxo-2-[4-(2-oxo-oxazolidin-4-ylmethyl)-phenylamino]-5,8-dihydro-pyrido[2,3-d]pyrimidine-6-carboxylic acid methyl amide]
15 | 440 nM | – | CCOC(=O)c1cn(-c2ccc3c(c2)CCC3)c2nc(Nc3ccc(OCC(O)CN(C)C)cc3)ncc2c1=O (stereo not shown) [Cpd 2, 2-[4-(3-Dimethylamino-2-hydroxy-propoxy)-phenylamino]-8-indan-5-yl-5-oxo-5,8-dihydro-pyrido[2,3-d]pyrimidine-6-carboxylic acid ethyl ester]
16 | 35 nM | – | CN1CCN(c2ccc(Nc3ncc4c(=O)c(C(N)=O)cn(C5CCCCC5)c4n3)cc2)CC1 [Cpd 60, 8-Cyclohexyl-2-[4-(4-methyl-piperazin-1-yl)-phenylamino]-5-oxo-5,8-dihydro-pyrido[2,3-d]pyrimidine-6-carboxylic acid amide]
17 | 2900 nM | – | CCOC(=O)c1cn(-c2ccc3c(c2)CCC3)c2nc(Nc3ccc(N4CCOCC4)cc3)ncc2c1=O [Cpd 3, 8-Indan-5-yl-2-(4-morpholin-4-yl-phenylamino)-5-oxo-5,8-dihydro-pyrido[2,3-d]pyrimidine-6-carboxylic acid ethyl ester]
18 | 25 nM | – | CCNC(=O)c1cn(-c2ccc3c(c2)CCC3)c2nc(Nc3ccc(C4CCNCC4)cc3)ncc2c1=O [Cpd 51, 8-Indan-5-yl-5-oxo-2-(4-piperidin-4-yl-phenylamino)-5,8-dihydro-pyrido[2,3-d]pyrimidine-6-carboxylic acid ethyl amide]
19 | > 10000 nM | – | CCOC(=O)c1cn(-c2ccc3c(c2)CCC3)c2nc(Nc3ccc(N(C)C)cc3)ncc2c1=O [Cpd 4, 2-(4-Dimethylamino-phenylamino)-8-indan-5-yl-5-oxo-5,8-dihydro-pyrido[2,3-d]pyrimidine-6-carboxylic acid ethyl ester]
20 | 32 nM | – | CCNC(=O)c1cn(-c2ccc3c(c2)CCC3)c2nc(Nc3ccc(CN4CCN(C)CC4)cc3)ncc2c1=O [Cpd 84, 8-Indan-5-yl-2-[4-(4-methyl-piperazin-1-ylmethyl)-phenylamino]-5-oxo-5,8-dihydro-pyrido[2,3-d]pyrimidine-6-carboxylic acid ethylamide]
21 | 62 nM | – | CN(C)C(=O)c1cccc(Nc2ncc3c(=O)c(C(N)=O)cn(-c4ccc5c(c4)CCC5)c3n2)c1 [Cpd 79, 2-(3-Dimethylcarbamoyl-phenylamino)-8-indan-5-yl-5-oxo-5,8-dihydro-pyrido[2,3-d]pyrimidine-6-carboxylic acid amide]
22 | 110 nM | – | CCNC(=O)c1cn(-c2ccc3c(c2)CCC3)c2nc(Nc3cccc(C(=O)N(C)C)c3)ncc2c1=O [Cpd 81, 2-(3-Dimethylcarbamoyl-phenylamino)-8-indan-5-yl-5-oxo-5,8-dihydro-pyrido[2,3-d]pyrimidine-6-carboxylic acid ethylamide]
23 | 68 nM | – | CCNC(=O)c1cn(-c2ccc3c(c2)CCC3)c2nc(Nc3ccc(N4CCN(C)CC4)cc3)ncc2c1=O [Cpd 9, 8-indan-5-yl-2-[4-(4-methyl-piperazin-1-yl)-phenylamino]-5-oxo-5,8-dihydro-pyrido[2,3-d]pyrimidine-6-carboxylic acid ethylamide]
24 | 730 nM | – | CN1CCN(c2ccc(Nc3ncc4c(=O)c(C(N)=O)cn(-c5ccccc5)c4n3)cc2)CC1 [Cpd 13, 2-[4-(4-Methyl-piperazin-1-yl)-phenylamino]-5-oxo-8-phenyl-5,8-dihydro-pyrido[2,3-d]pyrimidine-6-carboxylic acid amide]
25 | 4100 nM | – | CN1CCN(CC(=O)N2CCC(c3ccc(Nc4ncc5c(=O)c(C(N)=O)cn(-c6ccc7c(c6)CCC7)c5n4)cc3)CC2)CC1 [Cpd 72, 8-Indan-5-yl-2-(4-{1-[2-(4-methyl-piperazin-1-yl)-acetyl]-piperidin-4-yl}-phenylamino)-5-oxo-5,8-dihydro-pyrido[2,3-d]pyrimidine-6-carboxylic acid amide]
26 | 7400 nM | – | CN(C)CC(=O)N1CCC(c2cccc(Nc3ncc4c(=O)c(C(N)=O)cn(-c5ccc6c(c5)CCC6)c4n3)c2)CC1 [Cpd 71, 2-{3-[1-(2-Dimethylamino-acetyl)-piperidin-4-yl]-phenylamino}-8-indan-5-yl-5-oxo-5,8-dihydro-pyrido[2,3-d]pyrimidine-6-carboxylic acid amide]
27 | 16 nM | – | CCNC(=O)c1cn(-c2ccc3c(c2)CCC3)c2nc(Nc3ccc(N4CCNCC4)cc3)ncc2c1=O [Cpd 42, 8-indan-5-yl-5-oxo-2-(4-piperazin-1-yl-phenylamino)-5,8-dihydro-pyrido[2,3-d]pyrimidine-6-carboxylic acid ethyl amide]
28 | 21 nM | – | CN1CCN(c2cccc(Nc3ncc4c(=O)c(C(N)=O)cn(C5CCCCC5)c4n3)c2)CC1 [Cpd 63, 8-Cyclohexyl-2-[3-(4-methyl-piperazin-1-yl)-phenylamino]-5-oxo-5,8-dihydro-pyrido[2,3-d]pyrimidine-6-carboxylic acid amide]
